{
  "source": "patent US20130085105A1",
  "about": "“Transdermal Administration Of Peptides” (The Provost, Fellows and Scholars of the College of Holy …, priority 2010, published 2013)",
  "key": {"[1]": {"experiment": "In vitro transdermal permeation, diffusion cell, pig epidermis", "assay_type": "in vitro ADME, domestic pigs", "procedure": "The viable epidermal layer was removed from the flanks of freshly sacrificed four month-old female domestic pigs. The flank area of each animal was carefully shaved and the upper 200 μm of skin (Meyer, W., et al., Curr. Prob. Dermatol., 7: 39-52, 1978; de Jalón, et al., J. Control. Rel., 75:191-197, 2001) was harvested using an electric dermatome (Robbins Instruments, Chatham, N.J., U.S.A.). Pigskin epidermal specimens were frozen at −18° C. between layers of PBS-soaked tissue paper enclosed in aluminum foil for up to two weeks prior to use in in vitro permeation studies.\nA custom made finite dosing diffusion cell (AGB Scientific, Dublin, Ireland, FIG. 1) based upon and modified from the Keshary-Chien type diffusion cell was used for in vitro permeation studies.\nThree to five diffusion cells were used in each permeation experiment and monitoring was performed over a 48 hour period. The cells were linked in series to a thermostatically controlled circulation bath set at 35° C. to mimic human skin surface temperature. Each cell was placed on a stir-plate set at a defined stirring rate of 1,000 rpm. The surface area for permeation provided by each cell was 3.14 cm^2.\nData collected from each permeation study included:\n1) the average maximum flux obtained in 48 hours (Jmax),\n2) the total absorption characterized as the total weight of peptide delivered transdermally into the receiver compartment over a 48 hour period,\n3) the lag time to detectable flux which was equivalent to the latest sampling time at which no peptide was detectable by HPLC analysis of the receiver solution, and\n4) an equivalent 48-hour steady state flux was determined by obtaining the slope of the best-fit line for a plot of cumulative flux per unit area versus time (described by McDaid, D. M. et al., Int. J. Pharm., 133:71-83, 1996).\nFresh hairless mouse skin samples or fresh or freshly thawed pig skin samples were mounted onto the diffusion cell with the SC topmost and in contact with the donor system. A rubber or plastic ring was placed on top of the skin sample to secure it in position. The combination of the diffusion cell top, the skin and the rubber ring was securely fastened together by means of a threaded cap. A recorded volume of receiver solution was added to the receiver compartment and maintained at 35° C. The receiver solution was 60/40 (v/v) PBS/propylene glycol (pH 7.1). The propylene glycol fraction was used to increase the solubility of the somatostatin-fatty acid salts. Previous work reported by Morgan et al. (J. Pharm. Sci., 87:1213-1218, 1998) has shown that a 50/50 water/propylene glycol receptor solution had no detrimental effect on the barrier integrity of both hairless mouse and porcine skin.\nThe receiver solution was allowed to equilibrate at 35° C. for 30 minutes. The experiment was initiated by the application of 1 ml of donor solution containing approximately 5 mg free base peptide in DMSO to the skin surface followed by sealing of the donor compartment with Parafilm®. A narrow-bore hypodermic needle was used to withdraw 1 ml samples from the receiver compartment via the sampling port; at each sampling time, an equal volume of drug-free receiver solution was immediately added back to the receiver compartment. Samples were analyzed by HPLC.\nHPLC determination of peptide content in the receiver solution along with the known surface area of skin used (3.14 cm^2) allowed for calculation of transdermal flux (in units of μg/cm^2/hr) for each time point. Panels 1 and 2 of FIG. 2 show flux profiles obtained for the oleate salts of Compound A and Compound B in DMSO which far exceeded the flux profiles for the myristate, octanoate, decanoate, linoleate, nonanote, acetate and laurate salts of Compound A as well as the acetate salt of Compound B in DMSO. […]"}, "[2]": {"experiment": "Prediction of permeability coefficient Kp and human steady-state plasma level", "excerpt": "A further approach to estimating human plasma levels following transdermal administration was outlined by Howes et al. (ATLA, 24:81-106, 1996) and was based on a mass balance approach whereby the input and output quantities of drug are considered equal. Rewriting “input=output” for transdermal systems gives:\nA×Kp×Cappl=CL×Cp Eqn. 10.6\nwhere A is the area of application, Kp is the permeability coefficient of the drug through the skin, Cappl is the applied concentration, CL is the plasma clearance and Cp is the steady-state plasma concentration of the drug. Rearranging the equation to estimate Cp gives: […]\nA number of methods for determining Kp based on the lipophilicity and molecular weight of the drug in question are available. Potts and Guy (Pharm. Res., 9:663-669, 1992) found the following relationship:\nAnother method of calculating Kp which makes use of in vitro data is described by Hewitt et al. (In vitro cutaneous disposition of a topical diclofenac lotion in human skin: Effect of a multidose regimen, in Percutaneous Absorption, Bronaugh, R. L. and Maibach, H. I. (Eds.), Marcel Dekker Inc., New York, 1999):\nKp(cm/h)=absorption(μg)/[area×concentration(μg/cm^3)×time] Eqn. 10.11\nValues for Kp were calculated using Eqns. 10.9 and 10.10 using the MW value for Compound B di-oleate (1,767 g/mol) and its previously determined KOW value (340.43). Additionally, Eqn. […]"}, "[3]": {"conditions": "pig epidermis overlaid with microporous polypropylene membrane, EtOH/Water/Cineole + 5% (w/v) HPC, 5 mg/ml"}, "[4]": {"conditions": "pig epidermis, donor 55% EtOH 40% Water 5% Cineole, 5 mg/ml free base peptide"}, "[5]": {"conditions": "pig epidermis, donor 80% Prop. Glycol 15% Decanol 5% Cineole"}, "[6]": {"conditions": "pig epidermis, donor 80% Prop. Glycol 15% Dodecanol 5% Cineole"}},
  "data": [
    {"substance": "[4-(2-hydroxyethyl)]-1-piperazinylacetyl-D-Phe-c(Cys-Tyr-D-Trp-Lys-Abu-Cys)-Thr-NH2 [Compound B di-oleate]", "values": [
      {"measurement": "Jmax", "setting": "[1]; [3]", "value": 4.200, "unit": "μg/cm^2/hr"},
      {"measurement": "Jss", "setting": "[1]; [3]", "value": 0.309, "unit": "μg/cm^2/hr"},
      {"measurement": "Lag Time", "setting": "[1]; [3]", "value": 1, "unit": "h"},
      {"measurement": "Total Absorption", "setting": "[1]; [3]", "value": 56.89, "unit": "μg/48 hr"},
      {"measurement": "Jmax", "setting": "[1]; [4]", "value": 9.224, "unit": "μg/cm^2/hr"},
      {"measurement": "Jss", "setting": "[1]; [4]", "value": 5.552, "unit": "μg/cm^2/hr"},
      {"measurement": "Lag Time", "setting": "[1]; [4]", "value": 1, "unit": "h"},
      {"measurement": "Total Absorption", "setting": "[1]; [4]", "value": 814.44, "unit": "μg/48 hr"},
      {"measurement": "Jmax", "setting": "[1]; [5]", "value": 6.085, "unit": "μg/cm^2/hr"},
      {"measurement": "Jss", "setting": "[1]; [5]", "value": 4.539, "unit": "μg/cm^2/hr"},
      {"measurement": "Lag Time", "setting": "[1]; [5]", "value": 3.5, "unit": "h"},
      {"measurement": "Total Absorption", "setting": "[1]; [5]", "value": 917.18, "unit": "μg/48 hr"},
      {"measurement": "Jmax", "setting": "[1]; [6]", "value": 3.983, "unit": "μg/cm^2/hr"},
      {"measurement": "Jss", "setting": "[1]; [6]", "value": 3.335, "unit": "μg/cm^2/hr"},
      {"measurement": "Lag Time", "setting": "[1]; [6]", "value": 5, "unit": "h"},
      {"measurement": "Total Absorption", "setting": "[1]; [6]", "value": 600.35, "unit": "μg/48 hr"},
      {"measurement": "Kp Value Obtained", "setting": "[2]; Eqn. 10.11 from in vitro absorption across pig epidermis, optimized donor vehicle", "value": 0.0003476, "unit": "cm/h"},
      {"measurement": "steady-state plasma level (Cp)", "setting": "[2]; predicted for human, Eqn. 10.8 with Kp of Eqn. 10.11, area 20 cm^2, 5 mg/cm^3 applied", "value": 1.6998, "unit": "ng/mL"}
    ]}
  ]
}
